Reference: ChEMBL document CHEMBL4382254, “Design, synthesis, structure-activity relationships and mechanism of action of new quinoline derivatives as potential antitumor agents” (Eur J Med Chem, 2019)
The source made the active and inactive calls. No cut-off for these calls is given here.

Tests used:
[1] = tested on: HCT-116; assay: Induction of apoptosis in human HCT116 cells assessed as early apoptotic cells at 2.5 to 5 uM after 24 hrs in presence of pan-caspase inhibitor z-VAD-FMK by Annexin V-FITC/propidium iodide staining based flow cytometry (reference value: 2.5%); assay type: functional
[2] = tested on: HCT-116; assay: Cytotoxicity against human HCT116 cells assessed as reduction in cell viability measured after 24 hrs by CCK8 assay; assay type: functional, cell-based; conditions: HCT-116, 24 h
[3] = target: Cellular tumor antigen p53 (Homo sapiens) (UniProt P04637); assay: Activation of P53 in human HCT116 cells assessed as increase in p21 expression at 2.5 to 20 uM after 24 hrs by immunoblot analysis; assay type: cell-based
[4] = tested on: HCT-116; assay: Cytotoxicity against Bax-deficient human HCT116 cells assessed as reduction in cell viability measured after 24 hrs by CCK8 assay; assay type: functional, cell-based; conditions: HCT-116, 24 h
[5] = tested on: DLD-1; assay: Cytotoxicity against human DLD1 cells assessed as reduction in cell viability at 5 uM incubated for 24 hrs followed by compound washout by CCK8 assay; assay type: functional, cell-based; conditions: TDE = time-dependent effect
[6] = tested on: HCT-116; assay: Induction of apoptosis in human HCT116 cells assessed as increase in cleaved PARP level at 2.5 to 10 uM after 24 hrs by immunoblot analysis; assay type: functional, cell-based
[7] = target: Cellular tumor antigen p53 (Homo sapiens) (UniProt P04637); assay: Activation of P53 in human HCT116 cells assessed as increase in PUMA expression at 2.5 to 20 uM after 24 hrs by immunoblot analysis; assay type: cell-based
[8] = tested on: HCT-116; assay: Cell cycle arrest in human HCT116 cells assessed as accumulation at G0/G1 phase at 5 uM after 48 hrs by propidium iodide staining based flow cytometry (reference value: 82.16%); assay type: functional
[9] = tested on: HCT-116; assay: Induction of apoptosis in Bax-deficient human HCT116 cells assessed as late apoptotic cells at 5 uM after 24 hrs by Annexin V-FITC/propidium iodide staining based flow cytometry (reference value: 14.67%); assay type: functional
[10] = tested on: HCT-116; assay: Inhibition of colony formation in Bax-deficient human HCT116 cells after 24 hrs by crystal violet staining based assay; assay type: functional, cell-based
[11] = tested on: HCT-116; assay: Induction of apoptosis in Bax-deficient human HCT116 cells assessed as early apoptotic cells at 5 uM after 24 hrs by Annexin V-FITC/propidium iodide staining based flow cytometry (reference value: 8.01%); assay type: functional
[12] = tested on: HCT-116; assay: Induction of apoptosis in human HCT116 cells assessed as viable cells at 2.5 to 5 uM after 24 hrs in presence of pan-caspase inhibitor z-VAD-FMK by Annexin V-FITC/propidium iodide staining based flow cytometry (reference value: 88.08%); assay type: functional
[13] = tested on: DLD-1; assay: Cytotoxicity against human DLD1 cells after 48 hrs by MTT assay; assay type: functional, cell-based; conditions: DLD-1, 48 h
[14] = tested on: HCT-116; assay: Induction of apoptosis in human HCT116 cells assessed as increase in cleaved PARP level after 24 hrs in presence of pan-caspase inhibitor z-VAD-FMK by immunoblot analysis; assay type: functional, cell-based
[15] = tested on: RKO; assay: Inhibition of colony formation in human RKO cells after 24 hrs by crystal violet staining based assay; assay type: functional, cell-based
[16] = tested on: HCT-116; assay: Induction of apoptosis in P53-deficient human HCT116 cells assessed as increase in Bax expression at 2.5 to 20 uM after 24 hrs by immunoblot analysis; assay type: functional, cell-based
[17] = tested on: HCT-116; assay: Cell cycle arrest in human HCT116 cells assessed as accumulation at G2/M phase at 5 uM after 24 hrs by propidium iodide staining based flow cytometry (reference value: 16.3%); assay type: functional
[18] = tested on: HCT-116; assay: Induction of apoptosis in human HCT116 cells assessed as change in P53 expression at 2.5 to 20 uM after 24 hrs by immunoblot analysis; assay type: functional, cell-based
[19] = tested on: HCT-116; assay: Induction of apoptosis in human HCT116 cells assessed as early apoptotic cells at 5 uM after 24 hrs by Annexin V-FITC/propidium iodide staining based flow cytometry (reference value: 3.32 to 5.5%); assay type: functional
[20] = tested on: HCT-116; assay: Cytotoxicity against human HCT116 cells assessed as reduction in cell viability at 5 uM incubated for 24 hrs followed by compound washout by CCK8 assay; assay type: functional, cell-based; conditions: TDE = time-dependent effect
[21] = tested on: NCI-H1650; assay: Cytotoxicity against human NCI-H1650 cells after 48 hrs by MTT assay; assay type: functional, cell-based; conditions: NCI-H1650, 48 h
[22] = tested on: HCT-116; assay: Induction of intracellular reactive oxygen species generation in human HCT116 cells at 5 to 10 uM after 24 hrs by DCFH-DA staining based flow cytometry; assay type: functional, cell-based
[23] = target: Cellular tumor antigen p53 (Homo sapiens) (UniProt P04637); assay: Induction of P53 phosphorylation at Ser15 residue in human HCT116 cells after 15 to 90 mins by immunoblot analysis; assay type: cell-based
[24] = tested on: HCT-116; assay: Induction of apoptosis in human HCT116 cells assessed as late apoptotic cells at 2.5 uM after 24 hrs by Annexin V-FITC/propidium iodide staining based flow cytometry (reference value: 6.08%); assay type: functional
[25] = tested on: HCT-116; assay: Anticancer activity against human HCT116 cells xenografted in […] mouse assessed as reduction in tumor weight at 80 mg/kg administered once every 3 days for 21 days; assay type: functional, organism-based
[26] = tested on: HCT-116; assay: Induction of apoptosis in P53-deficient human HCT116 cells assessed as increase in PUMA expression at 2.5 to 20 uM after 24 hrs by immunoblot analysis; assay type: functional, cell-based
[27] = tested on: HCT-116; assay: Cytotoxicity against P53-deficient human HCT116 cells assessed as reduction in cell viability measured after 24 hrs by CCK8 assay; assay type: functional, cell-based; conditions: HCT-116, 24 h
[28] = target: Cellular tumor antigen p53 (Homo sapiens) (UniProt P04637); assay: Induction of P53 phosphorylation at Ser392 residue in human HCT116 cells after 15 to 90 mins by immunoblot analysis; assay type: cell-based
[29] = tested on: HCT-116; assay: Inhibition of colony formation in P53-deficient human HCT116 cells after 24 hrs by crystal violet staining based assay; assay type: functional, cell-based
[30] = tested on: DLD-1; assay: Induction of morphological changes in human DLD1 cells assessed as reduction in cell number at 5 to 10 uM after 24 hrs by phase contrast microscopic analysis; assay type: functional, cell-based
[31] = tested on: HCT-116; assay: Induction of apoptosis in human HCT116 cells assessed as viable cells at 2.5 uM after 24 hrs by Annexin V-FITC/propidium iodide staining based flow cytometry (reference value: 87.19%); assay type: functional; conditions: HCT-116, 24 h, read-out: Activity
[32] = tested on: HCT-116; assay: Cell cycle arrest in human HCT116 cells assessed as accumulation at S phase at 5 uM after 24 hrs by propidium iodide staining based flow cytometry (reference value: 5.55%); assay type: functional
[33] = tested on: HCT-116; assay: Cell cycle arrest in human HCT116 cells assessed as accumulation at G0/G1 phase at 5 uM after 24 hrs by propidium iodide staining based flow cytometry (reference value: 77.78%); assay type: functional
[34] = tested on: HCT-116; assay: Induction of apoptosis in human HCT116 cells assessed as early apoptotic cells at 2.5 uM after 24 hrs by Annexin V-FITC/propidium iodide staining based flow cytometry (reference value: 3.32%); assay type: functional
[35] = tested on: HCT-116; assay: Induction of morphological changes in human HCT116 cells assessed as cell shrinkage at 5 to 10 uM after 24 hrs by phase contrast microscopic analysis; assay type: functional, cell-based
[36] = tested on: RKO; assay: Cytotoxicity against human RKO cells assessed as reduction in cell viability at 5 uM incubated for 24 hrs followed by compound washout by CCK8 assay; assay type: functional, cell-based; conditions: TDE = time-dependent effect
[37] = tested on: RKO; assay: Induction of morphological changes in human RKO cells assessed as reduction in cell number at 5 to 10 uM after 24 hrs by phase contrast microscopic analysis; assay type: functional, cell-based

Sequence of Cellular tumor antigen p53 (Homo sapiens) (P04637 whole entry, looked up): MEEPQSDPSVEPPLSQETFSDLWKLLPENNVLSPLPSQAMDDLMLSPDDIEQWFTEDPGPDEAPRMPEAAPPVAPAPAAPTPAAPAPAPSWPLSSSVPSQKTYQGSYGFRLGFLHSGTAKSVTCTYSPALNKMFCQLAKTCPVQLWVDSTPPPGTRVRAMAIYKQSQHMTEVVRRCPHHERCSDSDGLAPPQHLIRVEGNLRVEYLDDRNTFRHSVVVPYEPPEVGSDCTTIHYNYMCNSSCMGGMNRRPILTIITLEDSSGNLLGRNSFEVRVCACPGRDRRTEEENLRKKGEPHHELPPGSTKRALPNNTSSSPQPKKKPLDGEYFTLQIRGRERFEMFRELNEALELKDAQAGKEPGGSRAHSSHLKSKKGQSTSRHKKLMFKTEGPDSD

Which Activity [1] does the source give for `CN(C)CCNc1ccnc2cc(OCc3ccc(F)cc3)ccc12` here?
The Activity was 3.15%.

What about the IC50 [2] of the same molecule?
The IC50 was 72.8 µM.

What about the Activity [3] of the same molecule?
Its Activity is “Active”.

What about the IC50 [4] of the same molecule?
Its IC50 is 31.1 µM.

And the Activity [5]?
Its Activity is “Tde”.

What about the Activity [6] of the same molecule?
The Activity was “Active”.

And the Activity [7]?
Its Activity is “Active”.

What about the Activity [8] of the same molecule?
The Activity was 83.72%.

What about the Activity [9] of the same molecule?
Its Activity is 7.29%.

What about the inhibition [10] of the same molecule?
The inhibition was “inactive”.

And the Activity [11]?
Its Activity is 24.16%.

What about the Activity [12] of the same molecule?
Its Activity is 84.15%.

What about the IC50 [13] of the same molecule?
Its IC50 is 0.81 µM.

And the Activity [14]?
The Activity was “inactive”.

And the inhibition [15]?
Its inhibition is “Dose-dependent effect”.

What about the Activity [16] of the same molecule?
The Activity was “inactive”.

And the Activity [17]?
The Activity was 12.94%.

And the Activity [18]?
Its Activity is “inactive”.

What about the Activity [19] of the same molecule?
Its Activity is 6.13 - 19.42%.

And the Activity [20]?
The Activity was “Tde”.

What about the IC50 [21] of the same molecule?
Its IC50 is 0.78 µM.

And the Activity [22]?
The Activity was “inactive”.

What about the Activity [23] of the same molecule?
The Activity was “Active”.

What about the Activity [24] of the same molecule?
Its Activity is 10.32%.

And the Activity [25]?
Its Activity is “Active”.

What about the Activity [26] of the same molecule?
Its Activity is “inactive”.

What about the IC50 [27] of the same molecule?
Its IC50 is 18.1 µM.

And the Activity [28]?
Its Activity is “Active”.

What about the inhibition [29] of the same molecule?
The inhibition was “inactive”.

And the Activity [30]?
The Activity was “Active”.

What about the viability at 2.5 µM [31] of the same molecule?
Its viability at 2.5 µM is 78.1%.

And the Activity [32]?
Its Activity is 4.38%.

What about the Activity [33] of the same molecule?
The Activity was 82.21%.

What about the Activity [34] of the same molecule?
The Activity was 4.94%.

What about the Activity [35] of the same molecule?
The Activity was “Active”.

And the Activity [36]?
Its Activity is “Tde”.

What about the Activity [37] of the same molecule?
The Activity was “Active”.
